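Each compound was tested at five concentrations against cells in 96-well plates for 48 hours. Abbreviation: GI50, concentration required for 50% inhibition of growth.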 The source made the active and inactive calls. Cut-off read from the data, not from the text of the source: active = GI50 up to about 1.1 µM and inactive = higher.
Tests used:
Assay in all cases: growth of human tumour cells (NCI), 48 h
EKVX = test system: EKVX
HCC 2998 = test system: HCC 2998
HCT-116 = test system: HCT-116
HL-60 = test system: HL-60
HT-29 = test system: HT-29
IGROV-1 = test system: IGROV-1
NCI-H226 = test system: NCI-H226
RPMI-8226 = test system: RPMI-8226
SF-268 = test system: SF-268
SK-MEL-28 = test system: SK-MEL-28
SK-MEL-2 = test system: SK-MEL-2
SK-MEL-5 = test system: SK-MEL-5
SW-620 = test system: SW-620
UACC-257 = test system: UACC-257
UO-31 = test system: UO-31
ACHN = test system: ACHN
M14 = test system: M14

Measured: GI50

Cn1c(-c2ccccc2)cc(-c2cccs2)c1-c1cccs1
inactive: EKVX 34.2 µM | HCC 2998 49.5 µM | HCT-116 > 100 µM | HL-60 54.8 µM | HT-29 51.2 µM | IGROV-1 > 100 µM | NCI-H226 > 100 µM | RPMI-8226 73.3 µM | SF-268 > 100 µM | SK-MEL-28 > 100 µM | SK-MEL-2 > 100 µM | SK-MEL-5 45.3 µM | SW-620 > 100 µM | UACC-257 > 35.4 µM | UO-31 > 100 µM

CCN(C1=CC(=O)NC2CCCCN12)c1ccccc1 (stereo not given)
inactive: ACHN > 100 µM | EKVX > 100 µM | HCC 2998 > 100 µM | HCT-116 > 100 µM | HT-29 > 100 µM | IGROV-1 > 100 µM | M14 > 100 µM | RPMI-8226 > 100 µM | SF-268 > 100 µM | SK-MEL-28 > 100 µM | SK-MEL-2 > 100 µM | SK-MEL-5 > 100 µM | SW-620 > 100 µM | UACC-257 > 100 µM | UO-31 > 10 µM

COc1ccc(NC(=O)C(=O)C2CNC(=O)NC2=O)c(OC)c1 (stereo not given)
inactive: ACHN > 100 µM | EKVX > 100 µM | HCC 2998 > 100 µM | HCT-116 > 100 µM | HL-60 > 100 µM | HT-29 > 100 µM | IGROV-1 > 100 µM | M14 > 100 µM | NCI-H226 > 100 µM | RPMI-8226 > 100 µM | SF-268 > 100 µM | SK-MEL-28 > 100 µM | SK-MEL-2 > 100 µM | SK-MEL-5 > 100 µM | SW-620 > 100 µM | UACC-257 > 100 µM | UO-31 > 100 µM

CCOc1ccccc1NC(=O)C1=C(C)NC(C)=C(C(=O)Nc2ccccc2OCC)C1c1ccc([N+](=O)[O-])cc1
inactive: ACHN > 100 µM | EKVX 54 µM | HCC 2998 > 100 µM | HCT-116 > 100 µM | HL-60 34.7 µM | HT-29 75.5 µM | IGROV-1 45.2 µM | M14 89.5 µM | NCI-H226 21.4 µM | RPMI-8226 10 µM | SF-268 > 100 µM | SK-MEL-28 > 100 µM | SK-MEL-2 44.3 µM | SW-620 > 100 µM | UACC-257 31.2 µM | UO-31 32.7 µM

COc1c(OC(C)=O)ccc(/C=C2\N=C(C)OC2=O)c1[N+](=O)[O-]
inactive: ACHN > 100 µM | HCC 2998 > 100 µM | HCT-116 > 100 µM | HL-60 > 100 µM | HT-29 > 100 µM | IGROV-1 > 100 µM | M14 > 100 µM | RPMI-8226 > 100 µM | SF-268 > 100 µM | SK-MEL-2 > 100 µM | SK-MEL-5 > 100 µM | SW-620 > 100 µM | UACC-257 > 100 µM | UO-31 > 100 µM

C(=N\CC/N=C/c1cccc2ccccc12)/c1cccc2ccccc12
inactive: ACHN > 100 µM | EKVX > 100 µM | HCC 2998 > 100 µM | HCT-116 > 100 µM | HT-29 > 100 µM | IGROV-1 > 100 µM | NCI-H226 > 100 µM | RPMI-8226 > 100 µM | SK-MEL-28 > 100 µM | SK-MEL-2 > 100 µM | SK-MEL-5 > 100 µM | SW-620 > 100 µM | UACC-257 > 100 µM | UO-31 > 100 µM

Cc1ccc(C(=O)c2nnc(C(=O)c3ccc(C)cc3)nn2)cc1
inactive: ACHN 76 µM | EKVX 59.6 µM | HCC 2998 > 100 µM | HCT-116 57.5 µM | HL-60 19.7 µM | HT-29 61.9 µM | IGROV-1 95.9 µM | M14 22.2 µM | NCI-H226 56 µM | RPMI-8226 30.5 µM | SF-268 21 µM | SK-MEL-28 51.3 µM | SK-MEL-2 38.4 µM | SK-MEL-5 50.9 µM | SW-620 20.8 µM | UACC-257 58.3 µM | UO-31 39.2 µM

c1ccc(C2OCCO2)c(OCCOc2cc(OCCOc3ccccc3C3OCCO3)c(OCCOc3ccccc3C3OCCO3)cc2OCCOc2ccccc2C2OCCO2)c1
inactive: ACHN 24.7 µM | HCT-116 14.5 µM | HL-60 > 100 µM | HT-29 > 100 µM | IGROV-1 12.4 µM | M14 26.7 µM | NCI-H226 13 µM | RPMI-8226 > 100 µM | SF-268 15.3 µM | SK-MEL-28 > 100 µM | SK-MEL-2 16.5 µM | SK-MEL-5 26.1 µM | SW-620 81.3 µM | UACC-257 > 100 µM | UO-31 12.9 µM

Cc1cc2ncn(-c3nc4ccccc4nc3C(C#N)S(C)(=O)=O)c2cc1C (stereo not given)
inactive: ACHN > 100 µM | EKVX > 100 µM | HCC 2998 > 100 µM | HCT-116 > 100 µM | HL-60 > 100 µM | IGROV-1 > 100 µM | M14 > 100 µM | NCI-H226 13.4 µM | RPMI-8226 > 100 µM | SF-268 > 100 µM | SK-MEL-28 > 100 µM | SK-MEL-2 > 100 µM | SK-MEL-5 > 100 µM | SW-620 > 100 µM | UACC-257 > 100 µM | UO-31 > 100 µM

CCN(CC)CCCCC1CCN(CC(=O)N2c3cc(Cl)ccc3NC(=O)CC2C)CC1 (stereo not given)
inactive: ACHN > 100 µM | HCC 2998 > 100 µM | HCT-116 > 100 µM | HL-60 > 100 µM | HT-29 > 100 µM | IGROV-1 > 100 µM | M14 > 100 µM | NCI-H226 > 100 µM | RPMI-8226 > 100 µM | SF-268 > 100 µM | SK-MEL-28 > 100 µM | SK-MEL-5 > 100 µM | SW-620 > 100 µM | UACC-257 > 100 µM | UO-31 > 100 µM

CCCCNC(=O)C1C(=O)N(CCCC)C(=O)/C1=N\N (stereo not given)
inactive: ACHN > 100 µM | EKVX > 100 µM | HCC 2998 > 100 µM | HCT-116 > 100 µM | HT-29 > 100 µM | IGROV-1 > 100 µM | M14 > 100 µM | NCI-H226 > 100 µM | RPMI-8226 > 100 µM | SF-268 > 100 µM | SK-MEL-28 > 100 µM | SK-MEL-2 > 100 µM | SK-MEL-5 > 100 µM | SW-620 > 100 µM | UACC-257 > 100 µM | UO-31 > 100 µM

C=CCC1OC(C)(C)Oc2ccc(OCOCCOC)cc21 (stereo not given)
inactive: ACHN > 100 µM | EKVX > 100 µM | HCC 2998 > 100 µM | HCT-116 > 100 µM | HT-29 > 100 µM | IGROV-1 > 100 µM | M14 > 100 µM | NCI-H226 > 10 µM | SF-268 > 100 µM | SK-MEL-28 > 100 µM | SK-MEL-2 > 100 µM | SK-MEL-5 > 100 µM | SW-620 > 100 µM | UACC-257 > 100 µM | UO-31 > 100 µM

Cc1ccccc1NC(=O)C1C(=O)N(c2ccccc2C)C(=O)/C1=N\NC(N)=O (stereo not given)
inactive: ACHN > 100 µM | EKVX > 100 µM | HCC 2998 > 100 µM | HCT-116 > 100 µM | HL-60 > 100 µM | HT-29 > 100 µM | IGROV-1 > 100 µM | M14 > 100 µM | SF-268 > 100 µM | SK-MEL-28 > 100 µM | SK-MEL-2 > 100 µM | SK-MEL-5 > 100 µM | SW-620 > 100 µM | UACC-257 > 100 µM | UO-31 > 100 µM
